“And” between values parts separate entries of the source, which are not always exact repeats. Equal values may be shown once. Read-outs that look alike come from different tables or passages of the source.
Assays:
[1] = log P by HPLC on a reversed-phase column (C 18), EEC Directive 79/831 Annex V.A8; type: physicochemical; settings: for LOGP_NEUTRAL: pH 7.8, 0.001 molar aqueous ammonium hydrogencarbonate/acetonitrile; for chromatographic logP: reversed-phase HPLC column (C 18)
Procedure: The log P values are measured according to EEC Directive 79/831 Annex V.A8 by HPLC (high-performance liquid chromatography) on a reversed-phase column (C 18). Temperature: 55° C. The LC-MS determination in the acidic range is effected at pH 2.7 using 0.1% aqueous formic acid and acetonitrile (contains 0.1% formic acid) as eluents, linear gradient from 10% acetonitrile to 95% acetonitrile. Called log P (HCOOH) in the table. LC-MS determination in the neutral range is effected at pH 7.8 with 0.001 molar aqueous ammonium hydrogencarbonate solution and acetonitrile as eluents; linear gradient from 10% acetonitrile to 95% acetonitrile. Called log P (neutral) in the table. Calibration is effected with unbranched alkan-2-ones (having 3 to 16 carbon atoms) with known log P values (log P values determined on the basis of the retention times by linear interpolation between two successive alkanone s).

Myzus persicae = Myzus persicae spray test (MYZUPE), Chinese cabbage leaf discs; type: in vivo; settings: after 6 days
Procedure: Myzus persicae—Spray Test (MYZUPE)
Solvent: 78 parts by weight of acetone • • 1.5 parts by weight of dimethylformamide
Emulsifier: alkylaryl poly glycol ether
(§1) To produce an appropriate active ingredient formulation, 1 part by weight of active ingredient is dissolved using the stated parts by weight of solvent and made up with water containing an emulsifier concentration of 1000 ppm until the desired concentration is attained. To produce further test concentrations, the preparation is diluted with emulsifier-containing water.
Discs of Chinese cabbage leaves (Brassica pekinensis) infested by all stages of the green peach aphid (Myzus persicae) are sprayed with an active ingredient formulation of the desired concentration.
After 6 days, the efficacy in % is determined. 100% means that all the aphids have been killed; 0% means that none of the aphids have been killed.

Phaedon cochleariae = Phaedon cochleariae spray test (PHAECO); type: in vivo; settings: application rate 500 g/ha; larvae; after 7 days
Procedure: Phaedon cochleariae—Spray Test (PHAECO)
(§2) Solvent: 78.0 parts by weight of acetone • • 1.5 parts by weight of dimethylformamide
(§3) Emulsifier: alkylaryl polyglycol ether
as §1
Discs of Chinese cabbage leaves (Brassica pekinensis) are sprayed with an active ingredient formulation of the desired concentration and, after drying, populated with larvae of the mustard beetle (Phaedon cochleariae).
After 7 days, the efficacy in % is determined. 100% means that all the beetle larvae have been killed; 0% means that no beetle larvae have been killed.

Tetranychus urticae = Tetranychus urticae spray test, OP-resistant (TETRUR); type: in vivo; settings: bean leaf discs, after 6 days
Procedure: Tetranychus urticae—Spray Test, OP-Resistant (TETRUR)
as §2, §3, §1
Discs of bean leaves (Phaseolus vulgaris) infested by all stages of the greenhouse red spider mite (Tetranychus urticae) are sprayed with an active ingredient formulation of the desired concentration.
After 6 days, the efficacy in % is determined. 100% means that all the spider mites have been killed; 0% means that none of the spider mites have been killed.

Spodoptera frugiperda = Spodoptera frugiperda spray test (SPODFR); type: in vivo; settings: application rate 500 g/ha; maize leaf discs; after 7 days
Procedure: Spodoptera frugiperda—Spray Test (SPODFR)
as §2, §3, §1
Leaf discs of maize (Zea mays) are sprayed with an active ingredient formulation of the desired concentration and, after drying, populated with caterpillars of the armyworm (Spodoptera frugiperda).
After 7 days, the efficacy in % is determined. 100% means that all the caterpillars have been killed; 0% means that no caterpillars have been killed.

Ctenocephalides felis = Ctenocephalides felis in vitro contact test; type: in vivo; settings: application rate 5 μg/cm^2; adult cat fleas; after 48 h
Procedure: Ctenocephalides felis—In Vitro Contact Test
For the coating of the test tubes, 9 mg of active ingredient are first dissolved in 1 ml of acetone p.a. and then diluted to the desired concentration with acetone p.a. 250 μl of the solution are distributed homogeneously on the inner walls and base of a 25 ml test tube by turning and rocking on an orbital shaker (rocking rotation at 30 rpm for 2 h). With 900 ppm active ingredient solution and internal surface 44.7 cm^2, given homogeneous distribution, an area-based dose of 5 μg/cm^2 is achieved.
After the solvent has evaporated off, the tubes are populated with 5-10 adult cat fleas (Ctenocephalides felis), sealed with a perforated plastic lid and incubated in a horizontal position at room temperature and ambient humidity. After 48 h, efficacy is determined. To this end, the test tubes are stood upright and the fleas are knocked to the base of the tube. Fleas which remain motionless at the base or move in an uncoordinated manner are considered to be dead or moribund.
100% efficacy means that all the fleas were dead or moribund. 0% efficacy means that no fleas were harmed.

Lucilia cuprina = Lucilia cuprina test (LUCICU); type: in vivo; settings: application rate 100 ppm; L1 larvae; after 2 days
Procedure: Lucilia cuprina Test (LUCICU) Solvent: dimethyl sulphoxide To produce an appropriate active ingredient formulation, 10 mg of active ingredient are mixed with 0.5 ml of dimethyl sulphoxide, and the concentrate is diluted with water to the desired concentration. About 20 L1 larvae of the Australian sheep blowfly (Lucilia cuprina) are transferred into a test vessel containing minced horsemeat and the active ingredient preparation of the desired concentration. After 2 days, the kill in % is determined. 100% means that all the larvae have been killed; 0% means that none of the larvae have been killed.

[2] = acidic range, pH 2.7, 0.1% aqueous formic acid/acetonitrile, 55° C.

LOGP_HCOOH [1, 2] | LOGP_NEUTRAL ([1]; neutral range, 55° C.) | chromatographic logP ([1]; acidic range, pH 2.7, 0.1% aqueous formic acid/acetonitrile, 55° C., read-out: LOGP_HCOOH) | chromatographic logP ([1]; neutral range, pH 7.8, read-out: log P (neutral)) | SMILES | efficacy (Myzus persicae; application rate 500 g/ha) | efficacy (Phaedon cochleariae) [%] | efficacy (Tetranychus urticae; application rate 500 g/ha) [%] | efficacy (Spodoptera frugiperda) [%] | efficacy (Tetranychus urticae; application rate 100 g/ha) [%] | efficacy (Ctenocephalides felis) [%] | efficacy (kill) (Lucilia cuprina) [%] | efficacy (Myzus persicae; application rate 20 g/ha) [%]
2.44 | 2.34 |  |  | CC[S+]([O-])c1ccc(Cl)cc1-c1nc2cc(C(F)(F)F)ncc2n1C (stereo not drawn) [Example I-13] | 100% | 100 | 90 |  |  |  |  | 
3.43 | 3.38 |  |  | CCSc1ccc(Cl)cc1-c1nc2cc(C(F)(F)F)ncc2n1C [Example I-19] | 90% | 100 | 90 | 83 |  |  |  | 
3.17 | 3.10 |  |  | CC[S+]([O-])c1cc(C(F)(F)F)cnc1-c1nc2cc(C(F)(F)F)ncc2n1C (stereo not drawn) [Example I-37] |  | 100 |  | 100 |  |  |  | 
 | 2.76 | 2.81 | 2.76 | Cn1c(-c2ncc(C(F)(F)F)cc2[S+](C)[O-])nc2cc(C(F)(F)F)ncc21 (stereo not drawn) [Example I-26, 3-methyl-2-[3-(methylsulphinyl)-5-(trifluoromethyl)pyridin-2-yl]-6-(trifluoro-methyl)-3H-imidazo[4,5-c]pyridine] |  | 100 |  | 100 |  |  |  | 
4.10 | 4.02 |  |  | CCSc1cc(C(F)(F)F)cnc1-c1nc2cc(C(F)(F)C(F)(F)F)ncc2n1C [Example I-47] |  | 100 |  | 100 |  |  |  | 
2.45 | 2.36 |  |  | CC[S+]([O-])c1cc(Cl)ccc1-c1nc2cc(C(F)(F)F)ncc2n1C (stereo not drawn) [Example I-44] | 100% | 100 | 90 |  |  |  |  | 
2.70 | 2.64 |  |  | CCS(=O)(=O)c1c(C(F)(F)F)ccnc1-c1nc2cc(C(F)(F)F)ncc2n1C [Example I-48] | 100% | 100 |  | 83 | 90 |  |  | 
2.13 | 2.11 |  |  | CCS(=O)(=O)c1ccccc1-c1nc2cc(C(F)(F)F)ncc2n1C [Example I-18] | 100% and 90% | 100 |  |  |  | 100 | 100 | 
1.90 | 1.87 |  |  | CC[S+]([O-])c1ccccc1-c1nc2cc(C(F)(F)F)ncc2n1C (stereo not drawn) [Example I-22] | 100% | 100 | 90 |  |  |  |  | 
3.52 | 3.48 |  |  | CCSc1cc(C(F)(F)F)cnc1-c1nc2cc(C(F)(F)F)ncc2n1C [Example I-2] |  | 100 | 90 | 100 |  |  |  | 
3.75 | 3.62 |  |  | CC[S+]([O-])c1cc(C(F)(F)F)cnc1-c1nc2cc(C(F)(F)C(F)(F)F)ncc2n1C (stereo not drawn) [Example I-63] |  | 83 |  | 100 |  |  |  | 
3.12 |  |  |  | CCSc1ccc(OC)nc1-c1nc2cc(C(F)(F)F)ncc2n1C [Example I-53] |  | 100 | 90 |  |  |  |  | 
3.16 | 3.07 |  |  | Cn1c(-c2ncc(C(F)(F)F)cc2S(=O)(=O)CCF)nc2cc(C(F)(F)F)ncc21 [Example I-54] |  | 100 |  | 100 |  |  |  | 
3.46 | 3.39 |  |  | CCSc1cc(Cl)ccc1-c1nc2cc(C(F)(F)F)ncc2n1C [Example I-42] | 90% | 100 | 90 | 100 |  |  |  | 
2.98 | 2.92 |  |  | CCSc1cccnc1-c1nc2cc(C(F)(F)C(F)(F)F)ncc2n1C [Example I-46] | 90% | 100 |  | 100 |  |  |  | 
3.52 | 3.45 |  |  | CCC[S+]([O-])c1cc(C(F)(F)F)cnc1-c1nc2cc(C(F)(F)F)ncc2n1C (stereo not drawn) [Example I-39] |  | 100 |  | 100 |  |  |  | 90
2.71 | 2.63 |  |  | CC[S+]([O-])c1cccnc1-c1nc2cc(C(F)(F)C(F)(F)F)ncc2n1C (stereo not drawn) [Example I-61] | 90% | 100 |  | 100 |  |  |  | 
3.29 | 3.22 |  |  | CCSc1cc(C(F)(F)F)cnc1-c1nc2nc(C(F)(F)F)ncc2n1C [Example I-28] |  | 100 | 90 |  |  |  |  | 

Reference: patent US11274097B2, “2-(het)aryl-substituted condensed bicyclic heterocycle derivatives as pest control agents” (BAYER CROPSCIENCE AKTIENGESELLSCHAFT, priority 2014, dated 2022)
